The test system of experiment [1] is NCI-H358 cells (KRAS G12C mutant cell line). The experiment can be described thus: Inhibition of NCI-H358 cell proliferation (CellTiter-Glo, 72 h). The experiment is classed as cell-based, human. The text has this:
(§1) As a preferred embodiment of the present disclosure, the detection method of NCI-H358 cell proliferation inhibitory activity and Mia PaCa-2 cell proliferation inhibitory activity is as follows: through cell culture, adding different concentrations of compound solutions to the cultured cells, continuing the culture for a period of time and measuring the cell proliferation; • further, the method of cell culture is: adjusting the cells to a suitable cell concentration with complete medium and spreading the cell suspension in well plates for culture; preferably, the culture conditions are 37° C., 5% CO2 incubator overnight; preferably, the cell suspension is spread in 96-well plates, 48-well plates, 24-well plates, 12-well plates or 6-well plates, more preferably 96-well plates; preferably, the suitable cell concentration is 1500-4000 cells/well, with 90 μL of cell suspension added to each well; • further, the compound solution is prepared with DMSO and may be further diluted with medium; preferably, the compound solution has a concentration gradient starting from 100 μM at 4-fold dilution, more preferably starting from 30 μM at 4-fold dilution, most preferably starting from 10 μM at 4-fold dilution; • further, the volume of the compound solution or solvent added to each well is 1-10 μL, preferably 10 μL; • further, after adding the compound solution, the conditions for continuing the culture are 37° C., 5% CO2 incubator; preferably, the culture time is 24-72 h, more preferably 72 h; • further, the method for measuring cell proliferation is MTT, CCK8, CellTiter-Glo; preferably the method is CellTiter-Glo; • further, the cell proliferation is read using a microplate reader, more preferably a BioTek Synergy H1 microplate reader.
(§2) When NCI-H358 or Mia PaCa-2 cells were cultured to the appropriate fusion level, the NCI-H358 or Mia PaCa-2 cells were collected, and the cells were adjusted to the appropriate cell concentration using a complete medium, and the cell suspension was spread in a 96-well plate, 90 μL per well, and placed in a 37° C., 5% CO2 incubator overnight; and compound solutions of different concentrations were prepared using DMSO and culture medium; and a solvent control was set, the compound solution was added to a 96-well plate, 10 μL per well, at 37° C. in a 5% CO2 incubator for 72 hours; CellTiter-Glo solution was added thereto and the mixture was mixed well by shaking, incubated for 10 min in the dark, and read by BioTek Synergy H1 microplate reader.
(§3) The luminescence signal values were used to calculate the inhibition rate, the concentration and the inhibition rate were fitted to a nonlinear regression curve using Graphpad Prism software, then the IC50 value was obtained.
For orientation: Cellular ATP, detected with luciferase, serves as a proxy for viable cell number.

Experiment [2] deals with Mia PaCa-2 cells (KRAS G12C mutant cell line). The experiment can be described thus: Inhibition of Mia PaCa-2 cell proliferation (CellTiter-Glo, 72 h). Format: cell-based, human.
Excerpt: as §1, §2, §3

In a further experiment the target is T1, human KRAS G12C protein (Homo sapiens, UniProt P01116, G12C).
T1 construct: purchased Beijing SinoBiological Co., Ltd. 12259-H07E2
The experiment in a line: Thermal shift: melting temperature of KRAS G12C protein. Format: binding. To be noted: for Tm (° C.): KRAS G12C protein 5.37 μM with compound 10 μM, 1 hour incubation; for ΔTm at 10 µM / ΔTm (° C.): compound 10 μM, Tm minus Tm of DMSO solvent control. The method, then: A solution containing […] (pH 7.5), 1 mM DTT, 5×SYPRO Orange and 150 mM NaCl was prepared as the experimental buffer, and a final concentration of 5.37 μM human KRAS G12C protein was added thereto. […] After incubating at room temperature in the dark for 1 hour, the PCR tube was put into the PCR instrument, QuantStudio Software v1.3 was opened, and the melting temperature of KRAS G12C protein in different treatment groups was detected by melt curve function (heating from 25° C. to 95° C., 0.03° C./s). The experimental data file of PCR instrument was imported into thermal shift software, and the melting temperature (Tm) of each treatment group was obtained, and the change value of melting temperature (Δ Tm) was obtained by subtracting the Tm of DMSO solvent control group.

The values that follow come from patent US12497396B2, “Nitrogen-containing heterocyclic derivatives, method therefor and application therefor as inhibitors of KRAS G12C for the treatment of cancers” (SHANGHAI HANSOH BIOMEDICAL CO., LTD., priority 2019, dated 2025).

Read-outs that look alike come from different tables or passages of the source.

Turning to `C=CC(=O)N1CCN(c2nc(=O)n(-c3c(SC)ccnc3C(C)C)c3nc(-c4c(O)cccc4F)c(F)cc23)[C@@H](C)C1` [Embodiment 60, 4-((S)-4-acryloyl-2-methylpiperazin-1-yl)-6-fluoro-7-(2-fluoro-6-hydroxyphenyl)-1-(2-isopropyl-4-(methylthio)pyridin-3-yl)pyrido[2,3-d]pyrimidin-2(1H)-one], in experiment [1] (Homo sapiens), the 50% inhibitory concentration (IC50) is 40 nM. The IC50 in experiment [2] (Homo sapiens) came out at 60 nM. Moreover, at human KRAS G12C protein, the “Tm (° C.)” value was 60.2 °C and the ΔTm at 10 µM turned out to be 11.6 °C.
The matching figures for `C=CC(=O)N1CCN(c2nc(=O)n(-c3c(C)ccnc3C(C)C)c3nc(-c4c(F)cccc4SC)c(F)cc23)[C@@H](C)C1` [Embodiment 75, (S)-4-(4-acryloyl-2-methylpiperazin-1-yl)-6-fluoro-7-(2-fluoro-6-(methylthio)phenyl)-1-(2-isopropyl-4-methylpyridin-3-yl) pyrido[2,3-d]pyrimidin-2 (1H)-one]: 24 nM, 34 nM, 61.2 °C and 10.6 °C.
As to `C=CC(=O)N1CCN(c2nc(=O)n(-c3c(C)ccnc3C(C)C)c3nc(-c4c(F)cccc4S(C)(=O)=O)c(F)cc23)[C@@H](C)C1` [Embodiment 77, (S)-4-(4-acryloyl-2-methylpiperazin-1-yl)-6-fluoro-1-(2-isopropyl-4-methylpyridin-3-yl)-7-(2-(methylsulfonyl-6-fluoro)phenyl) pyrido [2,3-d] pyrimidin-2 (1H)-one], in experiment [1] (Homo sapiens), the IC50 was 117 nM. In addition, in experiment [2] (Homo sapiens), the IC50 worked out at 120 nM. For the same compound, at human KRAS G12C protein, the “Tm (° C.)” value was 60.4 °C and the ΔTm at 10 µM was determined as 9.8 °C.
`C=CC(=O)N1CCN(c2nc(=O)n(-c3c(C)ccnc3CC(C)C)c3nc(-c4c(F)cccc4SCC)c(F)cc23)[C@@H](C)C1` [Embodiment 118]: the IC50 in experiment [1] worked out at 89 nM. Moreover, the IC50 in experiment [2] came out at 82 nM. Besides, at human KRAS G12C protein, the “Tm (° C.)” value amounted to 59.0 °C and the “ΔTm (° C.)” value came out at 8.4 °C.
On the same counts, the results for `C=CC(=O)N1CCN(c2nc(=O)n(-c3c(SC)ccnc3C(C)C)c3nc(-c4c(O)cccc4F)c(Cl)cc23)[C@@H](C)C1` [Embodiment 130] are 14 nM, 41 nM, 61.5 °C and 10.9 °C.
On the same counts, the results for `C=CC(=O)N1CCN(c2nc(=O)n(-c3c(SC)ccnc3C(C)C)c3nc(-c4c(F)cccc4SC)c(F)cc23)[C@@H](C)C1` [Embodiment 131] are 48 nM, 47 nM, 61.2 °C and 11.7 °C.
In the case of `C=CC(=O)N1CCN(c2nc(=O)n(-c3c(S(C)(=O)=O)ccnc3C(C)C)c3nc(-c4c(O)cccc4F)c(F)cc23)[C@@H](C)C1` [Embodiment 133, 4-((S)-4-acryloyl-2-methylpiperazin-1-yl)-6-fluoro-7-(2-fluoro-6-hydroxyphenyl)-1-(2-isopropyl-4-(methylsulfonyl)pyridin-3-yl) pyrido [2,3-d] pyrimidin-2 (1H)-one], the IC50 in experiment [1] (Homo sapiens) amounted to 25 nM; in experiment [2] (Homo sapiens), 46 nM.
With `C=CC(=O)N1CCN(c2nc(=O)n(-c3c(C)ccnc3C(C)C)c3nc(-c4ccccc4SC)c(F)cc23)[C@@H](C)C1` [Embodiment 138], the values for the IC50 in experiment [1] and in experiment [2] were 67 nM and 104 nM, respectively. Besides, the “Tm (° C.)” value on human KRAS G12C protein was 59.4 °C. Besides, on human KRAS G12C protein, the “ΔTm (° C.)” value was found to be 8.8 °C.
As to `C=CC(=O)N1CCN(c2nc(=O)n(-c3c(SC)ccnc3C(C)C)c3nc(-c4c(N)ccc(Cl)c4F)c(Cl)cc23)[C@@H](C)C1` [Embodiment 150, 4-((S)-4-acryloyl-2-methylpiperazin-1-yl)-7-(6-amino-3-chloro-2-fluorophenyl)-6-chloro-1-(2-isopropyl-4-(methylthio)pyridin-3-yl) pyrido [2,3-d] pyrimidin-2 (1H)-one], in experiment [1] (Homo sapiens), the IC50 came out at 5.4 nM. Moreover, the half-maximal inhibitory concentration (IC50) in experiment [2] (Homo sapiens) came out at 8.6 nM. Moreover, at human KRAS G12C protein, the “Tm (° C.)” value came out at 60.2 °C and the ΔTm at 10 µM was found to be 13.4 °C.
Turning to `C=CC(=O)N1CCN(c2nc(=O)n(-c3c(SC)ccnc3C(C)C)c3nc(-c4c(N)ccc(Cl)c4F)c(F)cc23)[C@@H](C)C1` [Embodiment 151, 4-((S)-4-acryloyl-2-methylpiperazin-1-yl)-7-(6-amino-3-chloro-2-fluorophenyl)-6-fluoro-1-(2-isopropyl-4-(methylthio)pyridin-3-yl)pyrido[2,3-d]pyrimidin-2(1H)-one], the results for the IC50 in experiment [1] (Homo sapiens) and in experiment [2] (Homo sapiens) were 39 nM and 59 nM, respectively.
The matching figures for `C=CC(=O)N1CCN(c2nc(=O)n(-c3c(SC)ccnc3C(C)C)c3nc(-c4c(O)ccc(F)c4F)c(F)cc23)[C@@H](C)C1` [Embodiment 153, 4-((S)-4-acryloyl-2-methylpiperazin-1-yl)-7-(2,3-difluoro-6-hydroxyphenyl)-6-fluoro-1-(2-isopropyl-4-(methylthio)pyridin-3-yl) pyrido [2,3-d] pyrimidin-2 (1H)-one]: 68 nM and 76 nM.
The matching figures for `C=CC(=O)N1CCN(c2nc(=O)n(-c3c(SC)ccnc3C(C)C)c3nc(-c4c(F)cccc4F)c(F)cc23)[C@@H](C)C1` [Embodiment 154, (S)-4-(4-acryloyl-2-methylpiperazin-1-yl)-7-(2,6-difluorophenyl)-6-fluoro-1-(2-isopropyl-4-(methylthio)pyridin-3-yl)pyrido[2,3-d]pyrimidin-2(1H)-one]: 79 nM and 68 nM.
The matching figures for `C=CC(=O)N1C[C@H](C)N(c2nc(=O)n(-c3c(SC)ccnc3C(C)C)c3nc(-c4c(O)cccc4F)c(Cl)cc23)C[C@H]1C` [Embodiment 166, 4-((2S, 5R)-4-acryloyl-2,5-dimethylpiperazin-1-yl)-6-chloro-7-(2-fluoro-6-hydroxyphenyl)-1-(2-isopropyl-4-(methylthio)pyridin-3-yl) pyrido [2,3-d] pyrimidin-2 (1H)-one]: 16 nM and 23 nM.
`C=CC(=O)N1CCN(c2nc(=O)n(-c3c(SC)ccnc3C(C)C)c3nc(-c4c(F)cccc4F)c(F)cc23)[C@@H](C)C1` [Embodiment 169, (S)-4-(4-acryloyl-2-methylpiperazin-1-yl)-7-(2,6-difluorophenyl)-6-fluoro-1-(2-isopropyl-4-(methylthio)pyridin-3-yl) pyrido [2,3-d] pyrimidin-2 (1H)-one]: the IC50 came to 79 nM in experiment [1] and 68 nM in experiment [2].
As to `C=CC(=O)N1CCN(c2nc(=O)n(-c3c(SC)ccnc3C(C)C)c3nc(-c4c(N)c(Cl)cc(Cl)c4F)c(Cl)cc23)[C@@H](C)C1` [Embodiment 191, 4-((s)-4-acryloyl-2-methylpiperazine-1-yl)-7-(2-amino-3,5-dichloro-6-fluorophenyl)-6-chloro-1-(2-isopropyl-4-(methylthio)pyridin-3-yl) pyrido [2,3-d] pyrimidin-2 (1H)-one], the IC50 in experiment [1] (Homo sapiens) turned out to be 32 nM; in experiment [2] (Homo sapiens), 16 nM.
The matching figures for `C=CC(=O)N1CCN(c2nc(=O)n(-c3c([S+](C)[O-])ccnc3C(C)C)c3nc(-c4c(N)c(Cl)cc(Cl)c4F)c(Cl)cc23)[C@@H](C)C1` (stereo partly drawn) [Embodiment 192, 4-((S)-4-acryloyl-2-methylpiperazin-1-yl)-7-(2-amino-3,5-dichloro-6-fluorophenyl)-6-chloro-1-(2-isopropyl-4-(methylsulfinyl)pyridin-3-yl) pyrido [2,3-d] pyrimidin-2 (1H)-one]: 29 nM and 13 nM.

Usually IC50 stands for the concentration needed to halve the response being measured. In general, ΔTm refers to the shift of the melting midpoint relative to a reference.
